From patent US5281263A, “Azo dyes containing a carboxy group” (Imperial Chemical Industries PLC, priority 1991, dated 1994)
In brackets after ≈: the same amount, converted by molar mass.

Key:
[1] = solubility of the dye in water; format: physicochemical
[2] = absorption of the dye: lambda max and E max; format: physicochemical

solubility ([1]; 25° C., pH 8.5) [mg/mL]	E max [2]	lambda max [2] [nm]	solubility ([1]; temperature and pH not given) [mg/mL]	solubility ([1]; 25° C.) [mg/mL]	solubility ([1]; 25° C., pH 9.5) [mg/mL]	Compound
	about 23,500	553	~80 (≈ 121 mM)			O=C(O)c1ccc(N=Nc2ccc(N=Nc3c(S(=O)(=O)O)cc4ccc(Nc5cccc(C(=O)O)c5)cc4c3O)c3ccccc23)cc1 [Example 3]
	about 22,000	567		~80 (≈ 121 mM)		O=C(O)c1ccc(N=Nc2ccc(N=Nc3c(S(=O)(=O)O)cc4ccc(Nc5ccc(C(=O)O)cc5)cc4c3O)c3ccccc23)cc1 [Example 2]
	about 24,500	558			~80 (≈ 121 mM)	O=C(O)c1ccc(Nc2ccc3cc(S(=O)(=O)O)c(N=Nc4ccc(N=Nc5cccc(C(=O)O)c5)c5ccccc45)c(O)c3c2)cc1 [Example 1]

Further lines, the molecule ahead of its results:

Compound	solubility ([1]; 25° C., pH 8.5) [mg/mL]	E max [2]	lambda max [2] [nm]	solubility ([1]; temperature and pH not given) [mg/mL]	solubility ([1]; 25° C.) [mg/mL]	solubility ([1]; 25° C., pH 9.5) [mg/mL]
O=C(O)c1ccc(Nc2ccc3cc(S(=O)(=O)O)c(N=Nc4ccc(N=Nc5cccc(C(=O)O)c5)c5ccc(S(=O)(=O)O)cc45)c(O)c3c2)cc1 [Example 4]	130 to 150 (≈ 175 to 202 mM)	about 24,000	588			
O=C(O)c1cccc(N=Nc2ccc(N=Nc3c(S(=O)(=O)O)cc4ccc(Nc5cccc(C(=O)O)c5)cc4c3O)c3cc(S(=O)(=O)O)ccc23)c1 [Example 6]		about 15,000	578	~100 (≈ 135 mM)		
